The results in this text go back to patent publication US20240132431A1, “METHOD FOR ALKYLATING ACIDIC FUNCTIONAL GROUP” (Chugai Seiyaku Kabushiki Kaisha, priority 2021, published 2024).

For this experiment, the target named is T1, Bcl-2 protein (Recombinant Human Bcl-2 Protein) (Homo sapiens, UniProt P10415).
T1 construct: purchased Novus NBP2-34889
Description: Binding evaluation of mixture library compounds to Bcl-2 using AS-MS (affinity selection mass spectrometry). The settings on record: for ASMS ratio (%) n = 1: replicate n = 1; for ASMS ratio (%) n = 1 / ASMS ratio (%) n = 2: ASMS Ratio(%)=(A−C)/B×100; for ASMS ratio (%) n = 2: replicate n = 2. The procedure, abridged:
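Bcl-2 binding is scored from LC/MS signal retained with protein through gel-filtration spin columns, normalised to unfiltered and protein-free controls. Incubation: 20 μM protein, […] per compound, 1 h, 23° C.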

Setting [1] is: AS-MS, mixture of 1200 compounds, Bcl-2.
Where [2] appears, read: AS-MS on the mixture of 1200 library compounds.

T1 sequence (P10415 whole entry): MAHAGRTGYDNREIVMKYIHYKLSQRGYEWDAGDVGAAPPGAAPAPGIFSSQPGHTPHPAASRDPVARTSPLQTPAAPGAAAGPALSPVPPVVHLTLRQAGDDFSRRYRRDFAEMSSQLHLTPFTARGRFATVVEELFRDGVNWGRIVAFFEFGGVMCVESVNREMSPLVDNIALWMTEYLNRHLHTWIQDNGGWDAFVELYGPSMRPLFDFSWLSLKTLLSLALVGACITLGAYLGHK

Turning to `CCOc1cccc(-c2ccc(C(=O)N3CCN(c4ccc(C(=O)NS(=O)(=O)c5ccc(NCCSc6ccccc6)c(C(F)(F)F)c5)nn4)CC3)cc2C)c1` [B2R003-01, 6-[4-[4-(3-Ethoxyphenyl)-3-methylbenzoyl]piperazin-1-yl]-N-[4-(2-phenylsulfanylethylamino)-3-(trifluoromethyl)phenyl]sulfonylpyridazine-3-carboxamide], the “ASMS ratio (%)” value (n = 1) is listed as 21.6% and the “ASMS ratio (%)” value (n = 2) is 0.0%.
For `CCOc1cccc(C#Cc2ccccc2C(=O)N2CCN(c3ccc(C(=O)NS(C)(=O)=O)nn3)CC2)c1` [B2I007-01, 6-[4-[2-[2-(3-Ethoxyphenyl)ethynyl]benzoyl]piperazin-1-yl]-N-methylsulfonylpyridazine-3-carboxamide], for the setting “AS-MS, mixture library, Bcl-2”, the “ASMS ratio (%) n = 1” value is on record as −1.6% and the “ASMS ratio (%) n = 2” value was −1.6%.
`CCOc1cccc(-c2csc(C(=O)N3CCN(c4ccc(C(=O)NCC(F)(F)F)nn4)CC3)c2)c1` [B1K001-01, 6-[4-[4-(3-Ethoxyphenyl)thiophene-2-carbonyl]piperazin-1-yl]-N-(2,2,2-trifluoroethyl)pyridazine-3-carboxamide]: under setting [1], the “ASMS ratio (%) n = 1” value came out at 0.0% and the “ASMS ratio (%) n = 2” value is 0.0%.
On to “4-[4-[[3-(5-Ethoxypyridin-3-yl)-5-(trifluoromethoxy)phenyl]methyl]piperazin-1-yl]-N-propylbenzamide [B1M034-01]”, for which, under setting [1], the “ASMS ratio (%) n = 1” value is given as −0.3% and the “ASMS ratio (%) n = 2” value was −0.2%.
Turning to `CCOc1cccc(-c2cnn(-c3cc(C(=O)N4CCN(c5ccc(C(=O)NS(=O)(=O)CCC(F)(F)F)cc5)CC4)cc(C(F)(F)F)c3)c2)c1` [B2N043-01, 4-[4-[3-[4-(3-Ethoxyphenyl)pyrazol-1-yl]-5-(trifluoromethyl)benzoyl]piperazin-1-yl]-N-(3,3,3-trifluoropropylsulfonyl)benzamide], the “ASMS ratio (%)” value by setting is: (n = 1) −1.4%; (n = 2) 0.1%.
For the compound `CCOc1cccc(-c2cc(CN3CCN(c4ccc(C(=O)Nc5ccc(OC)cc5)cc4)CC3)cc(OC(C)C)c2)c1` [B1O057-01, 4-[4-[[3-(3-Ethoxyphenyl)-5-propan-2-yloxyphenyl]methyl]piperazin-1-yl]-N-(4-methoxyphenyl)benzamide], under setting [2], the “ASMS ratio (%) n = 1” value was found to be 4.1% and the “ASMS ratio (%) n = 2” value is listed as −2.2%.
The like results for “4-[4-[4-(3-Ethoxyphenyl)thiophene-2-carbonyl]piperazin-1-yl]-N-propylbenzamide [B1M083-01]” were, in that order, 0.0% and −0.3%.
As for `CCOc1cccc(-c2cc(C(=O)N3CCN(c4ccc(C(=O)NS(=O)(=O)C(C)(C)C)cc4)CC3)cc(C(C)(C)C)c2)c1` [B2L037-01, 4-[4-[3-tert-Butyl-5-(3-ethoxyphenyl)benzoyl]piperazin-1-yl]-N-tert-butylsulfonylbenzamide], the “ASMS ratio (%)” value runs as follows: (n = 1) 0.0%; (n = 2) 0.0%.
For `CCOc1cncc(-c2cc(C(=O)N3CCN(c4ccc(C(=O)NS(C)(=O)=O)nn4)CC3)cc(C(C)(C)C)c2)c1` [B2I016-01, 6-[4-[3-tert-Butyl-5-(5-ethoxypyridin-3-yl)benzoyl]piperazin-1-yl]-N-methylsulfonylpyridazine-3-carboxamide], for the setting “AS-MS, mixture library, Bcl-2”, the “ASMS ratio (%) n = 1” value was 0.0% and the “ASMS ratio (%) n = 2” value came out at 0.0%.
Turning to “4-[4-[[4-(3-Ethoxyphenyl)thiophen-2-yl]methyl]piperazin-1-yl]-N-propylbenzamide [B1M048-01]”, under setting [1], the “ASMS ratio (%) n = 1” value was 0.9% and the “ASMS ratio (%) n = 2” value was determined as 0.3%.
The like results for `CCOc1cncc(C#Cc2cc(C(=O)N3CCN(c4ccc(C(=O)NCC56CC7CC(CC(C7)C5)C6)nn4)CC3)cc(C(F)(F)F)c2)c1` [B1A020-01, N-(1-Adamantylmethyl)-6-[4-[3-[2-(5-ethoxypyridin-3-yl)ethynyl]-5-(trifluoromethyl)benzoyl]piperazin-1-yl]pyridazine-3-carboxamide] were, in that order, −4.3% and −10.5%.
With `CCOc1cncc(-c2ccc(CN3CCN(c4ccc(C(=O)NS(=O)(=O)c5ccc(NCCSc6ccccc6)c([N+](=O)[O-])c5)cc4)CC3)cc2F)c1` [B2Q052-01, 4-[4-[[4-(5-Ethoxypyridin-3-yl)-3-fluorophenyl]methyl]piperazin-1-yl]-N-[3-nitro-4-(2-phenylsulfanylethylamino)phenyl]sulfonylbenzamide], for the setting “AS-MS, mixture library, Bcl-2”, the “ASMS ratio (%) n = 1” value was 22.8% and the “ASMS ratio (%) n = 2” value is 13.9%.
As to `CCOc1cncc(-c2ccc(CN3CCN(c4ccc(C(=O)NCC(F)(F)F)cc4)CC3)c(OC)c2)c1` [B1K054-01, 4-[4-[[4-(5-Ethoxypyridin-3-yl)-2-methoxyphenyl]methyl]piperazin-1-yl]-N-(2,2,2-trifluoroethyl)benzamide], under setting [1], the “ASMS ratio (%) n = 1” value worked out at 0.0% and the “ASMS ratio (%) n = 2” value came out at 0.0%.
With `CCOc1cccc(-c2csc(C(=O)N3CCN(c4ccc(C(=O)N(C)CC56CC7CC(CC(C7)C5)C6)cc4)CC3)c2)c1` [B3A023-01, N-(1-Adamantylmethyl)-4-[4-[4-(3-ethoxyphenyl)thiophene-2-carbonyl]piperazin-1-yl]-N-methylbenzamide], under setting [2], the “ASMS ratio (%) n = 1” value is listed as 2.4% and the “ASMS ratio (%) n = 2” value is 1.7%.
On to `CCOc1cccc(-c2ccccc2CN2CCN(c3ccc(C(=O)NS(=O)(=O)CC45CC6CC(CC(C6)C4)C5)cc3)CC2)c1` [B2A045-01, N-(1-Adamantylmethylsulfonyl)-4-[4-[[2-(3-ethoxyphenyl)phenyl]methyl]piperazin-1-yl]benzamide], for which, for the setting “AS-MS, mixture library, Bcl-2”, the “ASMS ratio (%) n = 1” value is given as 6.5% and the “ASMS ratio (%) n = 2” value is −2.9%.
For `CCOc1cncc(-c2csc(C(=O)N3CCN(c4ccc(C(=O)NS(=O)(=O)C(C)(C)C)nn4)CC3)c2)c1` [B2L002-01, N-tert-Butylsulfonyl-6-[4-[4-(5-ethoxypyridin-3-yl)thiophene-2-carbonyl]piperazin-1-yl]pyridazine-3-carboxamide], the “ASMS ratio (%)” value came to 0.0% (n = 1) and 0.0% (n = 2).
With `CCOc1cccc(-c2cc(CN3CCN(c4ccc(C(=O)NS(=O)(=O)c5ccc(NCCSc6ccccc6)c(C(F)(F)F)c5)cc4)CC3)cc(OC(C)C)c2)c1` [B2R057-01, 4-[4-[[3-(3-Ethoxyphenyl)-5-propan-2-yloxyphenyl]methyl]piperazin-1-yl]-N-[4-(2-phenylsulfanylethylamino)-3-(trifluoromethyl)phenyl]sulfonylbenzamide], the “ASMS ratio (%)” value is, setting by setting: (n = 1) 5.7%; (n = 2) −5.1%.
Consider `CCOc1cncc(-c2ccc(CN3CCN(c4ccc(C(=O)NS(=O)(=O)CC56CC7CC(CC(C7)C5)C6)cc4)CC3)cc2F)c1` [B2A052-01, N-(1-Adamantylmethylsulfonyl)-4-[4-[[4-(5-ethoxypyridin-3-yl)-3-fluorophenyl]methyl]piperazin-1-yl]benzamide], for which, under “AS-MS, mixture library, Bcl-2”, the “ASMS ratio (%) n = 1” value amounted to 0.0% and the “ASMS ratio (%) n = 2” value is 0.0%.
As for `CCOc1cncc(-c2cc(C(=O)N3CCN(c4ccc(C(=O)N(CC)CC)cc4)CC3)cc(C(F)(F)F)c2)c1` [B4J040-01, 4-[4-[3-(5-Ethoxypyridin-3-yl)-5-(trifluoromethyl)benzoyl]piperazin-1-yl]-N,N-diethylbenzamide], under setting [2], the “ASMS ratio (%) n = 1” value is given as −0.5% and the “ASMS ratio (%) n = 2” value was −1.2%.
Take `CCOc1cccc(-c2ccc(C(C)N3CCN(c4ccc(C(=O)N(CC)CC)cc4)CC3)c(F)c2)c1` (centres unmarked) [B4J099-01, 4-[4-[1-[4-(3-Ethoxyphenyl)-2-fluorophenyl]ethyl]piperazin-1-yl]-N,N-diethylbenzamide]: the “ASMS ratio (%) n = 2” value (AS-MS, mixture library, Bcl-2) was determined as 0.0%.
As for `CCOc1cncc(-c2cnn(-c3cc(C(=O)N4CCN(c5ccc(C(=O)N(C)CC67CC8CC(CC(C8)C6)C7)cc5)CC4)cc(C(F)(F)F)c3)c2)c1` [B3A044-01, N-(1-Adamantylmethyl)-4-[4-[3-[4-(5-ethoxypyridin-3-yl)pyrazol-1-yl]-5-(trifluoromethyl)benzoyl]piperazin-1-yl]-N-methylbenzamide], under setting [2], the “ASMS ratio (%) n = 1” value is 12.3% and the “ASMS ratio (%) n = 2” value is −12.4%.
The like results for `CCOc1cccc(-c2ccc(CN3CCN(c4ccc(C(=O)Nc5ccc(OC)cc5)nn4)CC3)c(CC)c2)c1` [B1O075-01, 6-[4-[[4-(3-Ethoxyphenyl)-2-ethylphenyl]methyl]piperazin-1-yl]-N-(4-methoxyphenyl)pyridazine-3-carboxamide] were, in that order, 9.3% and 0.8%.
On to `CCOc1cncc(-c2cnn(-c3cc(C(=O)N4CCN(c5ccc(C(=O)NCC(F)(F)F)nn5)CC4)cc(C(F)(F)F)c3)c2)c1` [B1K022-01, 6-[4-[3-[4-(5-Ethoxypyridin-3-yl)pyrazol-1-yl]-5-(trifluoromethyl)benzoyl]piperazin-1-yl]-N-(2,2,2-trifluoroethyl)pyridazine-3-carboxamide], for which, under setting [1], the “ASMS ratio (%) n = 1” value was 1.4% and the “ASMS ratio (%) n = 2” value was 0.1%.
As for `CCOc1cccc(-c2ccc(C(=O)N3CCN(c4ccc(C(=O)Nc5ccc(OC)cc5)cc4)CC3)cc2F)c1` [B1O027-01, 4-[4-[4-(3-Ethoxyphenyl)-3-fluorobenzoyl]piperazin-1-yl]-N-(4-methoxyphenyl)benzamide], under setting [2], the “ASMS ratio (%) n = 1” value came out at 3.8% and the “ASMS ratio (%) n = 2” value is 2.1%.
